Series [1] in a line: Cytotoxicity against HUVEC assessed as reduction in cell viability. It is filed as cell-based. Particulars: human, HUVEC cells.
Series [2] is described as follows: Selectivity ratio of IC50 for human cathepsin L to IC50 for Plasmodium falciparum falcipain-2.
The next series has as its system Plasmodium falciparum. Kind of series: Antimalarial activity against Plasmodium falciparum infected in human erythrocytes. It is filed as functional, organism-based.
A short description of series [3]: Selectivity ratio of IC50 for human cathepsin B to IC50 for Plasmodium falciparum falcipain-2.
Series [4] is described as follows: Cytotoxicity against human HeLa cells assessed as reduction in cell viability. It is filed as cell-based.
A short description of series [5]: Selectivity ratio of IC50 for human cathepsin S to IC50 for Plasmodium falciparum falcipain-2.
Another series has as its target T1, Falcipain 2 (Plasmodium falciparum, UniProt Q9N6S8).
T1 sequence (Q9N6S8 whole entry): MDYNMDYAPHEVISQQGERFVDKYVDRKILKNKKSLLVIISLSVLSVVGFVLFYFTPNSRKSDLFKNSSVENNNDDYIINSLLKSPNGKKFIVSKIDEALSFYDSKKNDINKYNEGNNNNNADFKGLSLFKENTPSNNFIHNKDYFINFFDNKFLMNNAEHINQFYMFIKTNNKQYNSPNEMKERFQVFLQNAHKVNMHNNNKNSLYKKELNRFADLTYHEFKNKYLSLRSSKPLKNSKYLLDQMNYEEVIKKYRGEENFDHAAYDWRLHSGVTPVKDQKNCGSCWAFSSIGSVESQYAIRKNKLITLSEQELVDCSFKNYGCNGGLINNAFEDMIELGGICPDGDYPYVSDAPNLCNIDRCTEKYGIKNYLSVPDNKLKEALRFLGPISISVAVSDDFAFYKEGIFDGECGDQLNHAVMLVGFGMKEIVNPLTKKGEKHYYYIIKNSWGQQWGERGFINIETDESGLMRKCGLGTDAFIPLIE
Kind of series: Inhibition of Plasmodium falciparum falcipain-2.

A short description of series [6]: Selectivity ratio of IC50 for human cathepsin K to IC50 for Plasmodium falciparum falcipain-2.
Another series concerns the target Procathepsin L (Homo sapiens, UniProt P07711). The series can be described thus: Inhibition of human cathepsin L.
A further series has as its target Cathepsin S (Homo sapiens, UniProt P25774). The series can be described thus: Inhibition of human cathepsin S.
In the next series the target is T2, Cathepsin K (Homo sapiens, UniProt P43235).
T2 sequence (P43235 whole entry): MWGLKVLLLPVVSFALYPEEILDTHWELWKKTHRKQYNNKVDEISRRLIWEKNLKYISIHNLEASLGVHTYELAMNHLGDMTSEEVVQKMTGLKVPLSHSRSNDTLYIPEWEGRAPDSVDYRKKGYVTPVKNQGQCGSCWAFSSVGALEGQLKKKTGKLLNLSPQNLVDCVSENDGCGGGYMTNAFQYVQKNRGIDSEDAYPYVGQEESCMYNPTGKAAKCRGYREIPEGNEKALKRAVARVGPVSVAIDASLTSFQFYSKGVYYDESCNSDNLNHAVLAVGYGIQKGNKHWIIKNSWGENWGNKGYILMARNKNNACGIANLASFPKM
The series can be described thus: Inhibition of human cathepsin K.

A further series has as its target Cathepsin B (Homo sapiens, UniProt P07858). The series can be described thus: Inhibition of human cathepsin B.

Procathepsin L, sequence (P07711 whole entry): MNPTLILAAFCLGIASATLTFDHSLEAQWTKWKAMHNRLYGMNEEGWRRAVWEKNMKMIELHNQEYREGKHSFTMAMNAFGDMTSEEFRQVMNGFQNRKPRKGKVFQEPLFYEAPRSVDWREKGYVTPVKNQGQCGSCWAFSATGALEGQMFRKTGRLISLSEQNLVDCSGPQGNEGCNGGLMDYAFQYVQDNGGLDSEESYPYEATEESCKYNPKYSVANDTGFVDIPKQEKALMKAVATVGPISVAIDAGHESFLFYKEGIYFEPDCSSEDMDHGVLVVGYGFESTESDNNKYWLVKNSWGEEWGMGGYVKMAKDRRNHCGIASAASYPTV
Cathepsin S, sequence (P25774 whole entry): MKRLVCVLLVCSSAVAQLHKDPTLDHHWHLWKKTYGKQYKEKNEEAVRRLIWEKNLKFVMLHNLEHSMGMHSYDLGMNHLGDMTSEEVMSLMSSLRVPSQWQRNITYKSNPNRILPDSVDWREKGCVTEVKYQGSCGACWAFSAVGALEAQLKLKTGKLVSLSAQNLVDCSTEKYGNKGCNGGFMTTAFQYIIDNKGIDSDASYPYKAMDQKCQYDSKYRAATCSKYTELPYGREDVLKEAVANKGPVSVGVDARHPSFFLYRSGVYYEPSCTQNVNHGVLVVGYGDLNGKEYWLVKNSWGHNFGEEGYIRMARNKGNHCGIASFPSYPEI

Usually CC50 stands for the concentration giving 50% cytotoxicity. In general, EC50 refers to the concentration needed to bring the measured effect to its halfway point. One may read the IC50 as the point on the concentration scale where inhibition reaches its midpoint. The low end stands for inhibition by little substance, the high end for a need for much substance. In the case of `N#CC1(NC(=O)[C@H](Cc2cccnc2)NC(=O)c2cccc(-n3cnnn3)c2)CC1`, the CC50 in [1] and in [4] was more than 16 µM throughout. The Ratio IC50 in [2] is 574; in [3] it was more than 1670; in [5], 35; in [6] it was 1360. This compound registered an EC50 with Plasmodium falciparum of 2 µM. The same compound returned a concentration for half-maximal inhibition (IC50) on Falcipain 2 of 0.003 µM.

For `CC(C)CN(NC(=O)c1ccc(CN2CCN(C)CC2)cc1)c1nc(C#N)ncc1Br`, the IC50 on Procathepsin L was 0.0007 µM; against Cathepsin S, 0.03 µM; against Cathepsin K, 0.0002 µM; against Falcipain 2, 0.0006 µM; against Cathepsin B it was 0.987 µM. In the series with Plasmodium falciparum, this compound registered an EC50 of 0.061 µM.

As to `N#CC1(NC(=O)[C@H](Cc2ccncc2)NC(=O)c2ccc(-c3ccccc3)cc2)CC1`, the IC50 is 0.755 µM at Procathepsin L; 0.71 µM against Cathepsin S; 0.867 µM at Cathepsin K; more than 5 µM at Falcipain 2; more than 5 µM at Cathepsin B.

For the compound `CC(C)C[C@H](NC(=O)c1ccc(-c2ccccc2)cc1)C(=O)NC1(C#N)CC1`, the IC50 was determined as 0.492 µM on Procathepsin L; 0.085 µM against Cathepsin S; 0.0013 µM against Cathepsin K; 0.027 µM against Falcipain 2; 1.72 µM against Cathepsin B.

For the compound `N#CC1(NC(=O)[C@H](Cc2cccnc2)NC(=O)c2cccc(-c3cn[nH]c3)c2)CC1`, the CC50 in [1] and in [4] was more than 16 µM in each case. Moreover, the Ratio IC50 in [2] is 349; in series [3], more than 4170; in [5] it was 42; in [6] it was 2350. The compound also showed an EC50 in the series on Plasmodium falciparum of 2 µM. This compound also showed an IC50 on Falcipain 2 of 0.0012 µM.

In the case of `CN1CCN(Cc2ccc(-c3cncc(C(=O)N[C@@H](Cc4cccnc4)C(=O)NC4(C#N)CC4)c3)cc2)CC1`, the CC50 in series [1] and in [4] was more than 16 µM in each case. The Ratio IC50 was 45 in series [2], more than 2080 in series [3], 552 in [5] and more than 2080 in [6]. In addition, the concentration giving a half-maximal response (EC50) in the series on Plasmodium falciparum was determined as 2 µM. The compound further yielded an IC50 on Falcipain 2 of 0.0024 µM.

As to `N#CC1(NC(=O)[C@H](Cc2cscn2)NC(=O)c2ccc(-c3ccccc3)cc2)CC1`, the IC50 against Procathepsin L was more than 5 µM; at Cathepsin S, 2.37 µM; against Cathepsin K it was 0.435 µM; at Falcipain 2 it was 0.137 µM; against Cathepsin B it was 2.37 µM.

With `CS(=O)(=O)c1cccc(-c2cccc(C(=O)N[C@@H](Cc3cccnc3)C(=O)NC3(C#N)CC3)c2)c1`, the Ratio IC50 in series [2] was 302; in series [3], more than 610; in series [5], 26; in series [6], 180. For the same compound, on Falcipain 2, the IC50 turned out to be 0.0082 µM.

Regarding `CC(C)C[C@H](NC(=O)c1ccc(-c2ccccc2)cc1)C(=O)NC1(C#N)CCS(=O)(=O)CC1`, the IC50 turned out to be 0.099 µM against Procathepsin L; 0.0011 µM against Cathepsin S; 0.00011 µM at Cathepsin K; 0.008 µM on Falcipain 2; 2.5 µM against Cathepsin B. The EC50 in the series with Plasmodium falciparum is more than 25 µM.

With `Cn1nc(C(F)(F)F)cc1-c1ccc(C(=O)N[C@@H](Cc2cccnc2)C(=O)NC2(C#N)CC2)s1`, the Ratio IC50 in [2] was 1240; in [3] it was more than 2270; in series [5] it was 30; in [6] it was 212. Moreover, at Falcipain 2, the IC50 was 0.0022 µM.

As to `N#CC1(NC(=O)[C@@H](Cc2cccnc2)NC(=O)c2ccc(-c3ccccc3)cc2)CC1`, the IC50 against Procathepsin L was more than 5 µM; at Cathepsin S, more than 5 µM; against Cathepsin K, more than 5 µM; at Falcipain 2, more than 5 µM; on Cathepsin B, more than 50 µM.

As for `CN1CCCC(c2cccc(C(=O)N[C@@H](Cc3cccnc3)C(=O)NC3(C#N)CC3)c2)C1` (stereo not given in full), the Ratio IC50 in series [2] is 61; in series [3], more than 581; in [5], 202; in series [6], 170. The compound also registered an IC50 on Falcipain 2 of 0.0086 µM.

For `CN(C)c1ccc(C[C@H](NC(=O)c2ccc(-c3ccccc3)cc2)C(=O)NC2(C#N)CC2)cc1`, the IC50 was more than 5 µM on Procathepsin L, more than 5 µM against Cathepsin K, more than 5 µM against Falcipain 2 and 0.715 µM against Cathepsin B.

For the compound `CC(C)C[C@H](NC(=O)c1ccc(CN2CCN(C)CC2)cc1)C(=O)NC1(C#N)CCS(=O)(=O)CC1`, the IC50 is 0.004 µM at Procathepsin L; 0.001 µM on Cathepsin S; 0.001 µM at Cathepsin K; 0.057 µM against Falcipain 2; 2.32 µM at Cathepsin B. The compound further had an EC50 in the series with Plasmodium falciparum of 2.7 µM.

As for `N#CC1(NC(=O)[C@H](CCCCCN)NC(=O)c2ccc(-c3ccccc3)cc2)CC1`, the IC50 at Falcipain 2 is more than 5 µM.

In the case of `N#CC1(NC(=O)[C@H](CCCCN)NC(=O)c2ccc(-c3ccccc3)cc2)CC1`, the 50% inhibitory concentration (IC50) against Procathepsin L was more than 5 µM; against Cathepsin S, more than 5 µM; at Cathepsin K, more than 5 µM; on Falcipain 2, more than 5 µM; against Cathepsin B it was 1.27 µM.

On to `N#CC1(NC(=O)[C@H](Cc2nc3ccccc3s2)NC(=O)c2ccc(-c3ccccc3)cc2)CC1`, for which the IC50 at Procathepsin L is 0.334 µM; against Cathepsin S, 0.018 µM; on Cathepsin K, more than 5 µM; on Falcipain 2, more than 5 µM; against Cathepsin B, more than 5 µM.

With `CN1CCN(Cc2ccc(C(=O)N[C@@H](Cc3cccnc3)C(=O)NC3(C#N)CCS(=O)(=O)CC3)s2)CC1`, the Ratio IC50 in series [2] is 6; in [3], more than 90; in series [5] it was 7; in series [6] it was 34. At Falcipain 2, the IC50 turned out to be 0.0554 µM.

As to `N#CC1(NC(=O)[C@H](Cc2ccccc2)NC(=O)c2ccc(-c3ccccc3)cc2)CC1`, the IC50 is 0.635 µM at Procathepsin L; 0.283 µM on Cathepsin S; 0.213 µM at Cathepsin K; 0.667 µM against Falcipain 2; 2.21 µM on Cathepsin B.

As to `N#CC1(NC(=O)[C@H](Cc2cccnc2)NC(=O)c2cccc(-c3ncc[nH]3)c2)CC1`, the CC50 in [1] and in [4] was more than 16 µM each time. The Ratio IC50 in [2] was 128; in series [3], more than 1850; in series [5], 76; in series [6], 718. Further, the EC50 in the series with Plasmodium falciparum is 2 µM. In addition, the IC50 at Falcipain 2 was found to be 0.0027 µM.

With `N#CC1(NC(=O)[C@H](Cc2ccccn2)NC(=O)c2ccc(-c3ccccc3)cc2)CC1`, the IC50 against Procathepsin L was more than 5 µM; at Cathepsin S, more than 5 µM; on Cathepsin K, 3.83 µM; at Falcipain 2, more than 5 µM; on Cathepsin B, more than 5 µM.

Turning to `N#CC1(NC(=O)[C@H](Cc2c[nH]c3ccc(O)cc23)NC(=O)c2ccc(-c3ccccc3)cc2)CC1`, the IC50 at Procathepsin L was determined as 0.494 µM; against Cathepsin S, 0.253 µM; on Cathepsin K it was 1.87 µM; on Falcipain 2 it was 0.192 µM; at Cathepsin B, 1.1 µM.

Consider `CN1CCN(C(=O)C[C@H](NC(=O)c2ccc(-c3ccccc3)cc2)C(=O)NC2(C#N)CC2)CC1`, for which the IC50 against Procathepsin L, at Cathepsin S, on Cathepsin K, on Falcipain 2 and at Cathepsin B was more than 5 µM each time.

For `N#CC1(NC(=O)[C@H](Cc2ccc(O[C@@H]3CCNC3)cc2)NC(=O)c2ccc(-c3ccccc3)cc2)CC1`, the IC50 at Procathepsin L came out at 0.3 µM; on Cathepsin S, 3.58 µM; on Cathepsin K it was 2.69 µM; on Falcipain 2, 1.59 µM; against Cathepsin B, 2.24 µM.

Take `N#CC1(NC(=O)C(Cc2ccc(Cl)nc2)NC(=O)c2ccc(-c3ccccc3)cc2)CC1` (stereo not given): the IC50 at Procathepsin L was 4.28 µM; against Cathepsin S, 0.19 µM; on Cathepsin K, more than 5 µM; at Falcipain 2, 0.23 µM; against Cathepsin B, more than 5 µM.

With `COc1ccc(CC(NC(=O)c2ccc(-c3ccccc3)cc2)C(=O)NC2(C#N)CC2)cn1` (stereo not given), the IC50 against Procathepsin L was 2.63 µM; against Cathepsin S, 0.195 µM; against Cathepsin K, more than 5 µM; on Falcipain 2 it was 0.178 µM; against Cathepsin B it was 4.08 µM.

As to `CN1CCN(Cc2ccc(C(=O)N[C@@H](Cc3cccnc3)C(=O)NC3(C#N)CC3)s2)CC1`, the Ratio IC50 in series [2] is 14; in series [3], more than 192; in series [5] it was 32; in series [6] it was 34. Moreover, the IC50 at Falcipain 2 was 0.0259 µM.

`Cn1nc(C(F)(F)F)cc1-c1ccc(C(=O)N[C@@H](Cc2cccnc2)C(=O)NC2(C#N)CCS(=O)(=O)CC2)s1`: the Ratio IC50 in series [2] was 679; in series [3], more than 793; in series [5], 9; in series [6], 107. Moreover, at Falcipain 2, the IC50 stood at 0.0063 µM.

The record behind these values is ChEMBL document CHEMBL4219198, “Peptidomimetic nitrile inhibitors of malarial protease falcipain-2 with high selectivity against human cathepsins” (Bioorg Med Chem Lett, 2018).
